The target of the test is activated ERK2 (Homo sapiens, UniProt P28482). As to the kind of experiment: ERK inhibition assay (spectrophotometric coupled-enzyme assay). It is filed as biochemical. As to conditions: activated ERK2 10 nM, 65 μM ATP, 200 μM erktide peptide, 30° C., pH 7.5; read-out: ERK2 Inhibitory Activity (Ki class).
Chain of activated ERK2 (P28482 whole entry): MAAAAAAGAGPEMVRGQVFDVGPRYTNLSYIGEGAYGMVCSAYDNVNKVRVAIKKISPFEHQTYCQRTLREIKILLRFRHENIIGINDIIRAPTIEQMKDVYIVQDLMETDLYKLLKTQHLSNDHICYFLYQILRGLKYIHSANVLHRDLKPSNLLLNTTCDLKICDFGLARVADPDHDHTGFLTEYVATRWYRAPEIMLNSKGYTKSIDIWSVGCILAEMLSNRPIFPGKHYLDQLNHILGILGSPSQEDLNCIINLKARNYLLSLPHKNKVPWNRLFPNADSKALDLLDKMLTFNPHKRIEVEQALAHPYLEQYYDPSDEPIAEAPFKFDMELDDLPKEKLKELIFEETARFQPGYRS
`COc1ccccc1CNC(=O)c1cc(-c2[nH]ncc2-c2cccc(F)c2)c[nH]1` [II-A-63]: the inhibition constant (Ki) was below 1000 nM.

Consider `O=C(NCc1ccncc1)c1cc(-c2[nH]ncc2-c2cccc(F)c2)c[nH]1` [II-A-80], for which the Ki was below 1000 nM.

Regarding `O=C(NCc1ccccc1)c1cc(-c2[nH]ncc2-c2cccc(Cl)c2F)c[nH]1` [II-A-82], the Ki is below 1000 nM.

As to `O=C(NCc1ccccc1)c1cc(-c2[nH]ncc2-c2ccc(F)c(F)c2)c[nH]1` [II-A-85], the inhibitory constant (Ki) was below 1000 nM.

Take `O=C(NCc1ccccc1)c1cc(-c2[nH]ncc2-c2cccc(F)c2F)c[nH]1` [II-A-103]: the Ki is below 1000 nM.

As for `O=C(c1cc(-c2[nH]ncc2-c2ccccc2)c[nH]1)N1CCCC1` [II-A-134], the inhibitory constant (Ki) lay in the range of 1000 to 5000 nM.

`COc1cccc(-c2cn[nH]c2-c2c[nH]c(C(=O)N3CCCC3)c2)c1` [II-A-144]: the Ki lay in the range of 1000 to 5000 nM.

`COc1cccc(-c2cn[nH]c2-c2c[nH]c(C(=O)NCc3cccnc3)c2)c1` [II-A-145]: the Ki was in the range of 1000 to 5000 nM.

As for `COc1cccc(-c2cn[nH]c2-c2c[nH]c(C(=O)NCc3ccco3)c2)c1` [II-A-147], the inhibition constant (Ki) is 1000 to 5000 nM.

`O=C(NCc1ccco1)c1cc(-c2[nH]ncc2-c2ccccc2)c[nH]1` [II-A-149]: the Ki lay in the range of 1000 to 5000 nM.

As to `O=C(c1cc(-c2[nH]ncc2-c2ccccc2)c[nH]1)N1CCOCC1` [II-A-150], the Ki was in the range of 1000 to 5000 nM.

For the compound `O=C(NCc1cccnc1)c1cc(-c2[nH]ncc2-c2ccccc2)c[nH]1` [II-A-153], the inhibition constant (Ki) fell in the range of 1000 to 5000 nM.

`COc1cccc(-c2cn[nH]c2-c2c[nH]c(C(=O)N(C)C)c2)c1` [II-A-154]: the Ki lay in the range of 1000 to 5000 nM.

`CC(C)NC(=O)c1cc(-c2[nH]ncc2-c2ccccc2)c[nH]1` [II-A-158]: the inhibitory constant (Ki) lay in the range of 1000 to 5000 nM.

As to `COc1cccc(-c2cn[nH]c2-c2c[nH]c(C(=O)N3CCC(C)CC3)c2)c1` [II-A-163], the Ki is above 5000 nM.

(Values after patent publication US6994868B2, “Compositions useful as inhibitors of ERK” (Vertex Pharmaceuticals Incorporated, priority 2000, dated 2006).)
